Data from ChEMBL document CHEMBL4190279 (Eur J Med Chem, 2017).

What was measured:
[1] = GPx-like activity of the compound assessed as half life for H2O2 reduction by measuring oxidation of PhSH to (PhS)2 at 50 uM measured for 180 secs by spectrophotometric analysis relative to control; assay type: functional
[2] = GPx-like activity of the compound assessed as H2O2 reduction by measuring oxidation of PhSH to (PhS)2 at 50 uM measured for 180 secs by spectrophotometric analysis relative to control; assay type: functional
[3] = GPx-like activity of the compound assessed as velocity for H2O2 reduction by measuring oxidation of PhSH to (PhS)2 at 50 uM measured for 180 secs by spectrophotometric analysis; assay type: functional
HBL-100 [4] = experiment: cells; settings: Homo sapiens, HBL-100, 48 h
Description: Antiproliferative activity against human HBL100 cells after 48 hrs by SRB assay

WiDr [5] = experiment: cells; settings: Homo sapiens, 48 h
Description: Antiproliferative activity against human WiDr cells after 48 hrs by SRB assay

in vitro = settings: human, hTERT-BJ cells
Description: Antiproliferative activity against human hTERT-BJ cells after 48 hrs by SRB assay

SW1573 [6] = experiment: cells; settings: Homo sapiens, SW1573, 48 h
Description: Antiproliferative activity against human SW1573 cells after 48 hrs by SRB assay

A549 [7] = experiment: cells; settings: Homo sapiens, A549, 48 h
Description: Antiproliferative activity against human A549 cells after 48 hrs by SRB assay

HeLa [8] = experiment: cells; settings: Homo sapiens, 48 h
Description: Antiproliferative activity against human HeLa cells after 48 hrs by SRB assay

Acetylcholinesterase [9] = target: T1, Acetylcholinesterase (Electrophorus electricus, UniProt O42275); experiment: Competitive inhibition of electric eel AChE assessed as enzyme-inhibitor complex using p-nitrophenyl acetate as substrate by Lineweaver-Burk plot analysis
T1 sequence (O42275 whole entry): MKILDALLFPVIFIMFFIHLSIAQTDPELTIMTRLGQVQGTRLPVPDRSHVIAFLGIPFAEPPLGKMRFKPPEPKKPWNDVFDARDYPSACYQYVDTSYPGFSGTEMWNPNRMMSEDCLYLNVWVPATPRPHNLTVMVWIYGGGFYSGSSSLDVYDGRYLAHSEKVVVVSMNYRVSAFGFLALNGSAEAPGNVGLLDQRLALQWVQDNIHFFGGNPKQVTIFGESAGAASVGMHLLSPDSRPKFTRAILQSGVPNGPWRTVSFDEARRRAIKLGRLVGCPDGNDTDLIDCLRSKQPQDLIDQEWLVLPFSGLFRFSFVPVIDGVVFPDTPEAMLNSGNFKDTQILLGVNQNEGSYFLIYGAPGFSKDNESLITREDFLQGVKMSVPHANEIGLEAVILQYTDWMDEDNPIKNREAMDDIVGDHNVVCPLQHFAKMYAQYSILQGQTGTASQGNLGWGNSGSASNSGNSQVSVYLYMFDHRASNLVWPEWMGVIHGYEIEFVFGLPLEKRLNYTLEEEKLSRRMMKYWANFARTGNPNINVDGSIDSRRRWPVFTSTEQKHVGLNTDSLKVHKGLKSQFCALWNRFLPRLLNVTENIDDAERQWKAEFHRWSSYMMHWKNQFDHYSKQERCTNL

Cholinesterase [10] = target: T2, Cholinesterase (Equus caballus, UniProt P81908)
T2 sequence (P81908 whole entry): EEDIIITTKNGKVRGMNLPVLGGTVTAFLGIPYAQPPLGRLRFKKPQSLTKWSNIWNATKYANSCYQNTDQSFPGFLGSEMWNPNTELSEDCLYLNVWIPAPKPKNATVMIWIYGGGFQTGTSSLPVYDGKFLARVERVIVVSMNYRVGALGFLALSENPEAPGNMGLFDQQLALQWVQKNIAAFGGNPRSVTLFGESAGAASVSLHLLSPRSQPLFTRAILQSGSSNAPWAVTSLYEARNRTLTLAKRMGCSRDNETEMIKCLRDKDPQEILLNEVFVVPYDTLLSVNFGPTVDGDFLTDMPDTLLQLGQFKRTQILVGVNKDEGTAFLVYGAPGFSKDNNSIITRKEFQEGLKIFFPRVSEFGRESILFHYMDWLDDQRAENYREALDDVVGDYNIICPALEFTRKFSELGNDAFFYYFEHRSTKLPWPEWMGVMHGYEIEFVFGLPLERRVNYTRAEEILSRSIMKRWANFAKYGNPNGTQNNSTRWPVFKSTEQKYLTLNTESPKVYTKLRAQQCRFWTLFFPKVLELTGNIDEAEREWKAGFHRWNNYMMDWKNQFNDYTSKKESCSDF
Description: Competitive inhibition of equine serum BuChE assessed as enzyme-inhibitor complex using p-nitrophenyl butyrate as substrate by Lineweaver-Burk plot analysis

T47D [11] = experiment: cells; settings: Homo sapiens, 48 h
Description: Antiproliferative activity against human T47D cells after 48 hrs by SRB assay

Cholinesterase [12] = target: T2, Cholinesterase; experiment: Mixed-type inhibition of equine serum BuChE assessed as enzyme-substrate-inhibitor complex using p-nitrophenyl butyrate as substrate by Lineweaver-Burk plot analysis
Cholinesterase [13] = target: T2, Cholinesterase; experiment: Mixed-type inhibition of equine serum BuChE assessed as enzyme-inhibitor complex using p-nitrophenyl butyrate as substrate by Lineweaver-Burk plot analysis
Acetylcholinesterase [14] = target: T1, Acetylcholinesterase; experiment: Mixed-type inhibition of electric eel AChE assessed as enzyme-inhibitor complex using p-nitrophenyl acetate as substrate by Lineweaver-Burk plot analysis
[15] = Selectivity index, ratio of Ki for equine serum BuChE assessed as enzyme-substrate-inhibitor complex to Ki for electric eel AChE assessed as enzyme-substrate-inhibitor complex
Acetylcholinesterase [16] = target: T1, Acetylcholinesterase; experiment: Mixed-type inhibition of electric eel AChE assessed as enzyme-substrate-inhibitor complex using p-nitrophenyl acetate as substrate by Lineweaver-Burk plot analysis
[17] = Selectivity index, ratio of GI50 for human hTERT-BJ cells to GI50 for human WiDr cells; assay type: toxicity; settings: hTERT-BJ cells versus WiDr cells, read-out: RatioGI50
HeLa [18] = experiment: Potency index, ratio of cisplatin GI50 to compound GI50 for human HeLa cells; assay type: functional
T47D [19] = experiment: Potency index, ratio of cisplatin GI50 to compound GI50 for human T47D cells; assay type: functional
[20] = target: Amyloid-beta precursor protein (Homo sapiens) (UniProt P05067); experiment: Inhibition of amyloid beta (1 to 42) (unknown origin) self aggregation at 50 uM after 24 hrs by ThT-based fluorometric method relative to control
Amyloid-beta precursor protein (Homo sapiens), sequence (P05067 whole entry): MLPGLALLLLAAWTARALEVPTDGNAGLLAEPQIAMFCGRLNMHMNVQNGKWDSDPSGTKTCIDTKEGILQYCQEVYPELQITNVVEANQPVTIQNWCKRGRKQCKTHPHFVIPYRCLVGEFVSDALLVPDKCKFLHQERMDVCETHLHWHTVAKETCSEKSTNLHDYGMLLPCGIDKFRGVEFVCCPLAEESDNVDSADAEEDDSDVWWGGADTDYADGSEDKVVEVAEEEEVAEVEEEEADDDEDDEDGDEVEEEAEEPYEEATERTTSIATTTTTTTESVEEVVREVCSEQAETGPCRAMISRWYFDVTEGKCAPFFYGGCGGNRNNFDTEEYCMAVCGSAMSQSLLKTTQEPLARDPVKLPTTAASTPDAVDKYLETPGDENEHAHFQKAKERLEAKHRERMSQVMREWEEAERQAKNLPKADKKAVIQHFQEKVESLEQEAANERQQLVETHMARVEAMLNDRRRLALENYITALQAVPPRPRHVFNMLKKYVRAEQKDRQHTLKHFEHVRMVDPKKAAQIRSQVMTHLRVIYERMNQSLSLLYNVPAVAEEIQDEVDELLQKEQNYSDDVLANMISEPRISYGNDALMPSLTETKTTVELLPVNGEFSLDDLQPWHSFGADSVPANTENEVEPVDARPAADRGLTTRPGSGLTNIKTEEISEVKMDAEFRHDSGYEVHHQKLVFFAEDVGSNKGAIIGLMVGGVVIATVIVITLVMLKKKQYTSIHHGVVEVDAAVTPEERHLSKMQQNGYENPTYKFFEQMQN

HeLa [21] = experiment: Potency index, ratio of 5-FU GI50 to compound GI50 for human HeLa cells; assay type: functional
Acetylcholinesterase [22] = target: T3, Acetylcholinesterase (Homo sapiens, UniProt P22303); experiment: Inhibition of human serum AChE using acetylthiocholine iodide as substrate preincubated for 20 mins followed by substrate addition measured after 5 mins by Ellman's method
T3 sequence (P22303 whole entry): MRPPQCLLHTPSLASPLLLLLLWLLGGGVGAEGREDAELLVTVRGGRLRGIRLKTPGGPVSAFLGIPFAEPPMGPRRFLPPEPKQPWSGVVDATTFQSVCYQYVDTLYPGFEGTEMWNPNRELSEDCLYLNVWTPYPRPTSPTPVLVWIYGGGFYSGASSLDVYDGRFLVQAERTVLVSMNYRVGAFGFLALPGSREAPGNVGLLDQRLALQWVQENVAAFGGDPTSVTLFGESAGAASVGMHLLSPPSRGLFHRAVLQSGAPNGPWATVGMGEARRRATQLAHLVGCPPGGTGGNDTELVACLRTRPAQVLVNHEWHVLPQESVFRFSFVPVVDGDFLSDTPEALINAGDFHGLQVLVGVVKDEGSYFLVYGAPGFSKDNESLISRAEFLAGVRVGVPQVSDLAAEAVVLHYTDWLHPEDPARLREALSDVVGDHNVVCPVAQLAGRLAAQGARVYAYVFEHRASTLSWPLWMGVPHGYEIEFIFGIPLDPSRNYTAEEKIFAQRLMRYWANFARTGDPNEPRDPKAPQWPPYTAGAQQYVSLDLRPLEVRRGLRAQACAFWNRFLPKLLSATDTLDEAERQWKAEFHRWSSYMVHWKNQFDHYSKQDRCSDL

Acetylcholinesterase [23] = target: T3, Acetylcholinesterase; experiment: Potency index, ratio of cystamine-tacrine IC50 to compound IC50 for human AChE
WiDr [24] = experiment: Potency index, ratio of cisplatin GI50 to compound GI50 for human WiDr cells; assay type: functional
HBL-100 [25] = experiment: Potency index, ratio of 5-FU GI50 to compound GI50 for human HBL100 cells; assay type: functional
N2a = experiment: Cytotoxicity against mouse N2A cells assessed as reduction in cell viability at 50 uM after 24 hrs by MTT assay; assay type: cell-based
T47D [26] = experiment: Potency index, ratio of 5-FU GI50 to compound GI50 for human T47D cells; assay type: functional
WiDr [27] = experiment: Potency index, ratio of 5-FU GI50 to compound GI50 for human WiDr cells; assay type: functional
SW1573 [28] = experiment: Potency index, ratio of 5-FU GI50 to compound GI50 for human SW1573 cells; assay type: functional
A549 [29] = experiment: Potency index, ratio of cisplatin GI50 to compound GI50 for human A549 cells; assay type: functional
SW1573 [30] = experiment: Potency index, ratio of cisplatin GI50 to compound GI50 for human SW1573 cells; assay type: functional
HBL-100 [31] = experiment: Potency index, ratio of cisplatin GI50 to compound GI50 for human HBL100 cells; assay type: functional
Acetylcholinesterase [32] = target: T1, Acetylcholinesterase; experiment: Non-competitive inhibition of electric eel AChE assessed as enzyme-substrate-inhibitor complex using p-nitrophenyl acetate as substrate by Lineweaver-Burk plot analysis
Acetylcholinesterase [33] = target: T1, Acetylcholinesterase; experiment: Non-competitive inhibition of electric eel AChE assessed as enzyme-inhibitor complex using p-nitrophenyl acetate as substrate by Lineweaver-Burk plot analysis
Cholinesterase [34] = target: T2, Cholinesterase; experiment: Non-competitive inhibition of equine serum BuChE assessed as enzyme-inhibitor complex using p-nitrophenyl butyrate as substrate by Lineweaver-Burk plot analysis
Cholinesterase [35] = target: T2, Cholinesterase; experiment: Non-competitive inhibition of equine serum BuChE assessed as enzyme-substrate-inhibitor complex using p-nitrophenyl butyrate as substrate by Lineweaver-Burk plot analysis
[36] = target: Amyloid-beta precursor protein (Homo sapiens) (UniProt P05067); experiment: Inhibition of amyloid beta (1 to 42) (unknown origin) self aggregation at 50 uM relative to control
[37] = Potency index, ratio of compound velocity to diphenyl diselenide velocity for GPx-like activity assessed as H2O2 reduction by measuring oxidation of PhSH to (PhS)2; assay type: functional
[38] = Potency index, ratio of compound velocity to ebselen velocity for GPx-like activity assessed as H2O2 reduction by measuring oxidation of PhSH to (PhS)2; assay type: functional
Acetylcholinesterase [39] = target: T1, Acetylcholinesterase; experiment: Uncompetitive inhibition of electric eel AChE assessed as enzyme-substrate-inhibitor complex using p-nitrophenyl acetate as substrate by Lineweaver-Burk plot analysis

| SMILES | T1/2 [1] | fold change (FC) [2] | Activity [3] | GI50 (HBL-100 [4]) | GI50 (WiDr [5]) | GI50 at 48 h (in vitro) | GI50 (SW1573 [6]) | GI50 (A549 [7]) | GI50 (HeLa [8]) | GI50 (T47D [11]) | Ratio Ki [15] | further results |
| --- | --- | --- | --- | --- | --- | --- | --- | --- | --- | --- | --- | --- |
| O=c1c2ccccc2[se]n1-c1ccccc1 | 20.8 h | 0.3 | 2 µM/min |  |  |  |  |  |  |  |  |  |
| N#C[Se]CCCCCNc1c2c(nc3ccccc13)CCCC2 | 1.86 h | 2.9 | 22.4 µM/min | 1100 nM | 650 nM | 360 nM | 650 nM | 1200 nM | 370 nM | 700 nM |  | Ki (Acetylcholinesterase [9]): 34.5 nM; Ki (Cholinesterase [10]): 206 nM |
| O=C(C[Se]c1ccccc1)Nc1c2c(nc3ccccc13)CCCC2 | 11.6 h | 0.5 | 3.6 µM/min | 35000 nM | > 100000 nM |  | > 100000 nM | 37000 nM | 32000 nM | 53000 nM | 0.5 | Ki (Cholinesterase [12]): 1710 nM; Ki (Cholinesterase [13]): 518 nM; Ki (Acetylcholinesterase [14]): 8420 nM; Ki (Acetylcholinesterase [16]): 3540 nM |
| c1ccc2c(NCCCCCSSCCCCCNc3c4c(nc5ccccc35)CCCC4)c3c(nc2c1)CCCC3 | 1.17 h | 4.6 | 35.5 µM/min | 1200 nM | 300 nM | 1400 nM | 290 nM | 1400 nM | 1000 nM | 950 nM | 74 | Ki (Cholinesterase [12]): 422 nM; Ki (Cholinesterase [13]): 166 nM; selectivity ratio [17]: ≤ 4.7; RatioGI50 (HeLa [18]): <=162; RatioGI50 (T47D [19]): <=162; inhibition [20]: 61.8%; Ki (Acetylcholinesterase [14]): 3.1 nM; RatioGI50 (HeLa [21]): <=306; IC50 (Acetylcholinesterase [22]): 1.62 nM; Ratio IC50 (Acetylcholinesterase [23]): 3; RatioGI50 (WiDr [24]): <=162; RatioGI50 (HBL-100 [25]): <=306; Activity (N2a): Non-Toxic; RatioGI50 (T47D [26]): <=306; RatioGI50 (WiDr [27]): <=306; RatioGI50 (SW1573 [28]): <=306; RatioGI50 (A549 [29]): <=162; RatioGI50 (SW1573 [30]): <=162; RatioGI50 (HBL-100 [31]): <=162; Ki (Acetylcholinesterase [16]): 5.7 nM |
| c1ccc2c(NCCCCCCSSCCCCCCNc3c4c(nc5ccccc35)CCCC4)c3c(nc2c1)CCCC3 | 1.27 h | 4.2 | 32.8 µM/min | 990 nM | 200 nM | 220 nM | 240 nM | 1100 nM | 330 nM | 370 nM | 4.7 | Ki (Cholinesterase [12]): 70 nM; Ki (Cholinesterase [13]): 243 nM; RatioGI50 (HeLa [18]): <=162; RatioGI50 (T47D [19]): <=162; RatioGI50 (HeLa [21]): <=306; RatioGI50 (WiDr [24]): <=162; RatioGI50 (HBL-100 [25]): <=306; RatioGI50 (T47D [26]): <=306; RatioGI50 (WiDr [27]): <=306; Ki (Acetylcholinesterase [32]): 14.8 nM; RatioGI50 (SW1573 [28]): <=306; RatioGI50 (A549 [29]): <=162; RatioGI50 (SW1573 [30]): <=162; Ki (Acetylcholinesterase [33]): 14.8 nM; RatioGI50 (HBL-100 [31]): <=162 |
| N#CSCCCCCCNc1c2c(nc3ccccc13)CCCC2 | 1.93 h | 2.8 | 21.6 µM/min | 11000 nM | 2400 nM |  | 5100 nM | 8300 nM | 8100 nM | 5500 nM |  | Ki (Cholinesterase [12]): 673 nM; Ki (Cholinesterase [13]): 252 nM; Ki (Acetylcholinesterase [9]): 18.5 nM |
| Cc1ccc(NC(=[Se])NCCCCCCNc2c3c(nc4ccccc24)CCCC3)cc1 | 1.41 h | 3.8 | 29.6 µM/min | 8100 nM | 2200 nM |  | 3700 nM | 5500 nM | 4100 nM | 3000 nM |  | Ki (Cholinesterase [34]): 10.7 nM; Ki (Cholinesterase [35]): 10.7 nM; Ki (Acetylcholinesterase [9]): 7.6 nM |
| c1ccc2c(NCCCCCCCNc3c4c(nc5ccccc35)CCCC4)c3c(nc2c1)CCCC3 |  |  |  |  |  |  |  |  |  |  |  | inhibition [36]: 71.1% |
| O=c1[nH]cc(F)c(=O)[nH]1 [FLUOROURACIL] |  |  |  | 5500 nM | 49000 nM | 5500 nM | 4300 nM |  | 15000 nM | 47000 nM |  |  |
| COc1ccc(NC(=[Se])NCCCCCCNc2c3c(nc4ccccc24)CCCC3)cc1 | 0.503 h | 10.6 | 82.9 µM/min |  |  |  |  |  |  |  | 1.1 | Ki (Cholinesterase [34]): 28.6 nM; Ratio [37]: 5.6; Ki (Cholinesterase [35]): 28.6 nM; Ki (Acetylcholinesterase [32]): 26.6 nM; Ratio [38]: 41.4; Ki (Acetylcholinesterase [33]): 26.6 nM |
| c1ccc2c(NCCSSCCNc3c4c(nc5ccccc35)CCCC4)c3c(nc2c1)CCCC3 |  |  |  |  |  |  |  |  |  |  |  | inhibition [36]: 66.3% |
| c1ccc([Se]CCCCCCNc2c3c(nc4ccccc24)CCCC3)cc1 | 2.13 h | 2.5 | 19.6 µM/min | 2000 nM | 890 nM | 2400 nM | 1100 nM | 860 nM | 1200 nM | 660 nM | 7.1 | selectivity ratio [17]: ≤ 4.7; Ki (Cholinesterase [34]): 57 nM; Ki (Acetylcholinesterase [39]): 8 nM; Ki (Cholinesterase [35]): 57 nM |
| c1ccc([Se][Se]c2ccccc2)cc1 | 2.81 h | 1.9 | 14.8 µM/min |  |  |  |  |  |  |  |  |  |
| N#CSCCCCCNc1c2c(nc3ccccc13)CCCC2 | 1.8 h | 3 | 23.1 µM/min | 15000 nM | 4100 nM |  | 15000 nM | 14000 nM | 11000 nM | 8300 nM |  | Ki (Acetylcholinesterase [32]): 50.1 nM; Ki (Acetylcholinesterase [33]): 50.1 nM; Ki (Cholinesterase [10]): 228 nM |
